Tests used:
[1] = biological target: T1, estrogen receptors (Homo sapiens, UniProt P03372); assay: Quantification of estrogen receptors in nuclear and whole cell extracts (ER-EIA monoclonal kit), Table 1; assay type: cell-based, human (MCF-7 human breast cancer cells); settings: estrogen receptors in nuclear extracts
T1 construct: estrogen receptor extracted from MCF-7 human breast tumor cells; endogenous in cells; host or cells: MCF-7 human breast cancer cells (nuclear extract, cytosol or whole cell extract)
T1 sequence (P03372 1-595): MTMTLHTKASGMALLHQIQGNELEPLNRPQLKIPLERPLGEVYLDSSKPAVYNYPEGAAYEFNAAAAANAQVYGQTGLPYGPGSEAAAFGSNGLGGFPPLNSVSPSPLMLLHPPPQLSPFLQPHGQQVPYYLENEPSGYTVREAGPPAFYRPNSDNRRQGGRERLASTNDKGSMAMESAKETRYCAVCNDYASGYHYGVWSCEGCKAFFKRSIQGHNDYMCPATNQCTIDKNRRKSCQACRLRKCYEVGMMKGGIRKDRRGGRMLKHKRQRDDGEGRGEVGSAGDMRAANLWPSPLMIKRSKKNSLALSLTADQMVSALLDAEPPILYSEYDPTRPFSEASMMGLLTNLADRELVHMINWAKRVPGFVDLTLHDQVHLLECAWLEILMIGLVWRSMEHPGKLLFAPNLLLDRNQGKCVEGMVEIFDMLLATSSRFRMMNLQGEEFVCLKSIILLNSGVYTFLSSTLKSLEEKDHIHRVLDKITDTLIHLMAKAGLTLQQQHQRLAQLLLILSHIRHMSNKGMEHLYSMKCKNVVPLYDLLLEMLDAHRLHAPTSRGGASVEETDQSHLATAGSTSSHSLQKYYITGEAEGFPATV
Procedure: (§1) Monolayers of MCF-7 human breast cancer cells are rinsed once with HBSS and scraped off culture dishes into 15 ml conical tubes with 5 ml HBSS. The cells are sedimented by centrifugation at 250×g for five minutes, suspended in 1 ml HBSS and sedimented by centrifugation at 2000 rpm in a tabletop centrifuge for five minutes in a 1.5 ml microfuge tube. Two PCV of a solution of a lysis buffer (25 mM HEPES, pH 7.8, 50 mM KCl, 0.5% Nonidet P 40, 2 mM dithiothreitol, 0.2 mM phenylmethylsulfonyl fluoride, 0.05 mg/ml leupeptin, 0.05 mg/ml aprotinin, 0.0025 mg/ml pepstatin, 0.005 mg/ml antipain) are added and cells are kept on ice for 15 minutes. Lysed cells are centrifuged for 3 minutes at 10,000×g, supernatant decanted, and kept as the cytosol fraction. Pellets are suspended in two PCV of extraction buffer (25 mM HEPES, pH 7.8, 500 mM KCl, 10% glycerol, 2 mM dithiothreitol and the above protease inhibitors), mixed for 20 minutes by inversion at 4 degrees C. and centrifuged at 10,000×g for 20 minutes. The supernatant is decanted and saved as nuclear extract. Both the nuclear extract and the cytosol are dialyzed for two hours against dialysis buffer (25 mM HEPES, pH 7.8, 50 mM KCl, 10% glycerol, 2 mM dithiothreitol and the above protease inhibitors). Nuclear and cytosol fractions are stored frozen at -80 degrees C. until used for mobility shift assays or determination of estrogen receptor content.
Whole cell extracts of tumor cells are prepared by the method of Reese and Katzenellenbogen, Nuc. Acids Res., 19: 6595-6602 (1991), with some modifications. Cell monolayers are rinsed once with HBSS, then scraped into HBSS and sedimented by centrifugation (5 min., 250×g). After resuspending in 1 mL HBSS, the cells are again sedimented at 250×g for 5 min at 4° C. The cell pellet is resuspended in lysis/extract buffer containing 20 mM Tris, pH 7.5, 10% glycerol (v/v), 0.5M sodium chloride and 0.5% NP-40 (v/v) and incubated on ice for 25 minutes, then the supernatants are dialyzed against 25 mM HEPES, pH 7.8, 10% glycerol (v/v), 0.5 mM dithiothreitol and 50 mM potassium chloride for 2 hours at 4° C. Both the lysis/extraction and the dialysis buffers contain protease inhibitors which included 0.5 mM phenylmethylsulfonylfluoride, 0.05 mg/mL leupeptin, 0.05 mg/mL aprotinin, 0.00-25 mg/mL pepstatin, and 0.005 mg/mL antipain. Dialyzed whole cell extracts are stored in aliquots at -80° C. until used.
The protein concentration for nucleus and cytosol fractions are determined with a BIO-RAD kit, according to the manufacturer's instructions.
Estrogen receptor levels in nuclear and whole cell extracts of tumor cells were quanitated using the ER-EIA monoclonal kit manufactured by Abbott Laboratories (Diagnostic Division) according to the kit instructions.
receptors in nuclear extracts.
.dagger.WCE refers to IC50 value for estrogen receptors in whole cel
A slash dividing two numbers indicates the results of two separate

[2] = biological target: T2, MCF-7 estrogen receptor (Homo sapiens, UniProt P03372); assay: Competitive binding assay, Relative Binding Affinities on binding of estradiol to MCF-7 estrogen receptor
T2 construct: estrogen receptor extracted from MCF-7 human breast tumor cells; endogenous in cells; host or cells: MCF-7 human breast cancer cells (nuclear extract, cytosol or whole cell extract)
T2 sequence (P03372 1-595): T1 sequence (P03372 1-595)
Procedure: Briefly, RBAs are determined from competitive binding assays with several concentrations of estradiol (E2) with and without test compound. After 16-18 hours of incubation at 4 degrees C., unbound [^3 H] E2 is separated from ER-bound [^3 H] E2. The IC50 is determined and the RBA is calculated as: […]

[3] = biological target: T3, estrogen receptor binding to an estrogen response element (Homo sapiens, UniProt P03372); assay: Inhibition of estrogen receptor binding to an estrogen response element in DNA mobility shift assays; assay type: biochemical, human (nuclear extract of MCF-7 human breast cancer cells)
T3 construct: estrogen receptor extracted from MCF-7 human breast tumor cells; endogenous in cells; host or cells: MCF-7 human breast cancer cells (nuclear extract, cytosol or whole cell extract)
T3 sequence (P03372 1-595): T1 sequence (P03372 1-595)
Procedure: as §1
Briefly, to each reaction tube was added 0.01 mg nuclear extract, 2 μg poly dIdC, 50 mM NaCl, 1 mM dithiothreitol and 10 mM Tris, pH 7.5 in a total volume of 0.01 ml and the mixture was kept at room temperature for 10 minutes. A ^32 P-labelled estrogen response element [ERE]

[4] = system: estrogen receptor mRNA; assay: Reduction of estrogen receptor mRNA levels in treated MCF-7 human breast tumor cells; assay type: cell-based;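 for Estrogen Receptor mRNA band intensity: Phosphoimager intensity of radioactive mRNA bands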
Procedure: After treatment with 30 μM drug for 24 hr, total RNA is isolated according to the guanidinium isothiocyanate method using an RNA preparation kit from 5 Prime-3 Prime, Inc., following the manufacturer's instructions. The RNA is separated by formaldehyde gel electrophoresis and transferred to a nylon membrane.

[5] = system: MCF-7 human breast tumor cells; assay: Clonigenic assay for MCF-7 human breast tumor cells; assay type: cell-based; settings: for Colonies ± S.D.: 24 hours treatment, grown 22 days
Procedure: MCF-7 cells (10^7) are added to 100 mm tissue culture dishes, allowed to adhere for 24 hours and then treated with either MDL 101,906 or ICI 164,384 for 24 hours. The cells are removed from the dishes with trypsin/EDTA, and washed twice by centrifugation. The cells were counted and 500 cells from each treatment group are added to triplicate wells of 6-well culture dishes. The cells are grown for 22 days. Colonies 1 mm diameter or greater are counted.

[6] = read-out: integrated volume of shifted ERE oligo as percentage of control, given as % inhibition

`CCCCN(C)C(=O)CCCCCCCNC(=O)Cc1c(C)n(C(=O)c2ccc(Cl)cc2)c2ccc(O)cc12` [MDL 101,906, 8-[[5-Hydroxy-1-(4-chlorobenzoyl)-2-methyl-1H-indol-3-yl]-acetylamino]-octanoic acid methyl-butyl-amide] was tested, and the IC50 [1] was 19 µM, the IC50 ([1]; second of two separate experiments (after the slash)) was 8.6 µM and the “inhibition of estradiol binding to MCF-7 ER” value ([2]; doses of 100 or 200 nM) was “did not significantly inhibit”. The “inhibition of estradiol binding to MCF-7 ER” value ([2]; typically, at doses of 100 or 200 nM) was “less than 10%”, the IC50 [3] was 8.5 µM and the inhibition at 2 µM [3, 6] was 81%. The inhibition at 5 µM [3, 6] was 76%, the inhibition at 10 µM [3, 6] was 46% and the inhibition at 20 µM [3, 6] was 38%. For the same molecule, the ER/GAPDH mean ([4]; 30 μM, 24 hr, mean of replicates 1 and 2) was 0.53, the ER/GAPDH ([4]; 30 μM, 24 hr, replicate 1) was 0.98 and the “Estrogen Receptor mRNA band intensity” value ([4]; 30 μM, 24 hr, replicate 1) was 5,142. The ER/GAPDH ([4]; 30 μM, 24 hr, replicate 2) was 0.38, the “Estrogen Receptor mRNA band intensity” value ([4]; 30 μM, 24 hr, replicate 2) was 1,916 and the activity at 30 µM ([4]; Homo sapiens, MCF7, 24 h, read-out: ER/GAPDH % Control) was 18%. For the same molecule, the “Colonies ± S.D.” value ([5]; 10 μM) was 30 ± 10, the “Colonies ± S.D.” value ([5]; 20 μM) was 27 ± 5 and the “Colonies ± S.D.” value ([5]; 50 μM) was 12 ± 2. It also gave an activity at 10 µM ([5]; Homo sapiens, MCF7, 528 h, 10 μM, read-out: Colonies, % Control) of 91%, an activity at 20 µM ([5]; Homo sapiens, MCF7, 528 h, 20 μM, read-out: Colonies, % Control) of 82% and an activity at 50 µM ([5]; Homo sapiens, MCF7, 528 h, 50 μM, read-out: Colonies, % Control) of 36%.

From patent publication US5877202A, “Indole derivatives useful to treat estrogen-related neoplasms and disorders” (priority 1996, dated 1999)
